The text below walks through data of patent US20080051464A1, “Protein phosphatase inhibitors” (The Cleveland Clinic Foundation, priority 2006, published 2008).

Data set [1] concerns melanoma MeI-7, colon cancer MC-26, breast cancer 4T1 and prostate cancer DU145. The experiment in a line: cyto-toxicity against four other cancer cell lines (MTT assay). In kind it is cell-based. To be noted: FIGS. 19B, C and D. From the text: (§1) L5, L6 and L6 analogs (Chembridge), mouse IFNγ ELISPOT Kit (R & D System) and antibody against pLck-pY394 or pERK1/2 (Cell Signaling) were purchased from commercial sources. Human Jurkat T cell line and murine B16 melanoma cell line (ATCC) and other cancer cell lines were maintained in […] culture medium supplemented with 10% fetal calf serum (FCS). The effects of chemical compounds on cancer cell growth in culture were quantified by MTT assays following our established procedures.
On the technique in general: Formazan colour is commonly taken as a measure of viable cells.

The test system of data set [2] is B16 melanoma cells. The data set is described as follows: B16 melanoma cell growth in culture (MTT assay). The data set is classed as cell-based, mouse.
Text: as §1

Data set [3] has as its system Jurkat cells. The experiment in a line: Jurkat cell apoptosis (Annexin V / 7-AAD, FACS). The data set is classed as cell-based, human. To be noted: 16 hrs (FIG. 23). The protocol: FIG. 23 illustrates jurkat cells were treated with L6 and analogs in culture for 16 hrs. Cells were then stained for apoptotic marker Annexin V and cell death marker 7-AAD prior to FACS analysis.

For data set [4], the system named is MKPs. The experiment in a line: induction of MKPs substrates in Jurkat cells (Western blotting). As to conditions: for differential effects on MKP substrates (pERK1/2, p38, pJNK): L6 at 1-100 ng/ml. The data set is classed as cell-based, human. The method, then:
FIG. 22 illustrates selective induction of MKPs substrates by L6 and analogs in Jurkat human leukemic cells. Jurkat cells were treated with the compounds for 30 min in culture prior to quantification of MKPs substrates by SDS-PAGE/Western blotting.
On the technique in general: A western blot detects proteins with antibodies after separation by electrophoresis.

Data set [5] relates to prostate cancer DU145. The data set is described as follows: DU145 cell growth (MTT assay). As to conditions: highest testing dose (5 μg/ml) (FIG. 19E). The data set is classed as cell-based.
Text: as §1

The test system of data set [6] is HT-29 human colon cancer cells. The data set is described as follows: cytotoxicity of 5FU against HT-29 cells with L6 or analogs (MTT assay). As to conditions: 5FU 2 μm, 3 days, then 4 days culture (FIG. 24). In kind it is cell-based. The method, then:
FIG. 24 illustrates HT-29 cells were treated with L6 or the analogs in the absence or presence of 5FU (2 μm) for 3 days. After washing, the cells were cultured for 4 days prior to quantification of viable cells by MTT assays.

For data set [7], the system named is pERK1/2 in B16 cells. The data set is described as follows: pERK1/2 in B16 cells (Western blotting). To be noted: 10 min (FIG. 20C). The data set is classed as cell-based, mouse. The method, then:
FIG. 20 illustrates L6 induces pERK1/2 in Jurkat and B16 cells. A and B, Western blotting membranes with samples and probed for the SHP-1 substrates were stripped and then re-probed with an antibody for pERK1/2. C, B16 cells were treated with L6 or L6a6 at […] for 10 min and subjected to SDS-PAGE/Western blotting to quantify pERK1/2.

In the case of `Cc1ccc(-n2sc3ccccc3c2=O)cc1` [L6a2], the “killing dose relative to L6 and L6a6” value in data set [1] is on record as 5-10 folds higher. The “dose that completely killed B16 cells (killing dose)” value in data set [2] (FIG. 19A) is 2.5 µg/mL. In addition, in data set [2] (comparable conditions (FIG. 19A)), the “toxicity toward B16 cells in culture” value is “little or limited toxicity”. Besides, in data set [3], the Jurkat cell apoptosis result was “apoptosis were induced”. In addition, in data set [4], the “MKP predominantly targeted (as indicated by effects on the substrates)” value is on record as “targeted a p38-specific MKP”. For the same molecule, the “differential effects on MKP substrates (pERK1/2, p38, pJNK)” value in data set [4] (30 min (FIG. 22)) is given as “selectively induced p38 phosphorylation”. Moreover, in data set [5], the DU145 cell growth entry is “failed to affect DU145 cell growth”.
As for `Cc1cc(-n2sc(Cl)c(C)c2=O)ccc1Cl` [L6a6], the “augmentation of 5FU cytotoxicity against HT-29 cells” value in data set [6] is recorded as “augmented”. In data set [3], the Jurkat cell apoptosis entry was “apoptosis were induced”. Also, the “MKP predominantly targeted (as indicated by effects on the substrates)” value in data set [4] is reported as “mainly acted against MKP1”. In addition, in data set [4] (30 min (FIG. 22)), the “dose inducing pJNK and p-p38” value is not below 1 ng/ml; the “differential effects on MKP substrates (pERK1/2, p38, pJNK)” value is on record as “induced pERK1/2 only at the high doses”. The “induction of pERK1/2 in B16 cells” value in data set [7] was “pERK1/2-inducing activity”.
